Legend:
Parameters in all cases: key: 0: normal development; 1: Less damaged; 2: Slightly damaged; 3: Moderately damaged; 4: Severely damaged; 5: All killed
corn [1] = test: Soil treatment test for upland field; format: in vivo; conditions: 500 g/ha, glass house 25° C., 3 weeks
How it was run: (§1)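 Pre-emergence test: seeds sown in Ube alluvial soil in Wagner pots, soil surface sprayed with wettable powder in water with 0.05% surfactant at 500 g/ha. Plants kept in a glasshouse at average 25 °C for 3 weeks, then damage scored 0 (normal) to 5 (all killed).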

sugar beat [2] = test: Soil treatment test for upland field; format: in vivo; conditions: 500 g/ha, glass house 25° C., 3 weeks
How it was run: as §1

solgum [3] = test: Soil treatment test for upland field; format: in vivo; conditions: 500 g/ha, glass house 25° C., 3 weeks
How it was run: as §1

cotton [4] = test: Soil treatment test for upland field; format: in vivo; conditions: 500 g/ha, glass house 25° C., 3 weeks
How it was run: as §1

wheat [5] = test: Soil treatment test for upland field; format: in vivo; conditions: 500 g/ha, glass house 25° C., 3 weeks
How it was run: as §1

soybean [6] = test: Soil treatment test for upland field; format: in vivo; conditions: 500 g/ha, glass house 25° C., 3 weeks
How it was run: as §1

Large crabgrass [7] = test: Soil treatment test for upland field; format: in vivo, Digitaria adscendens; conditions: 500 g/ha, glass house 25° C., 3 weeks
How it was run: as §1

common lambsquartes [8] = test: Soil treatment test for upland field; format: in vivo, Chenopodium album; conditions: 500 g/ha, glass house 25° C., 3 weeks
How it was run: as §1

corn [9] = test: Foliar spread test for upland field; format: in vivo; conditions: foliar spray 500 ppm, 3 weeks, rank vs non-treated
Text: (§2) (0: normal development, 1: Less damaged, 2: Slightly damaged, 3: Moderately damaged, 4: Severely damaged, 5: All killed).
(§3) Wagner pots, each having an area of 1/5000 are, were packed with volcanic ash soil and then each seed of corn, soybean, cotton, wheat, solgum, sugar beat, Large crabgrass, barnyardgrass, green foxtail, blackgrass, annual bluegrass, common lambsquartes, livid amaranth, velvetleaf and morning glory was planted, covered with soil and grown in a glass house at an average temperature of […] for about 2 weeks.
(§4) Each wettable powder of the desired compounds (I) shown in Table 1 prepared in accordance with Example 2 was diluted to 500 ppm with water containing a surfactant (0.5%) and then uniformly sprayed on the above respective plants.
(§5) After these plants were controlled in a glass house at an average temperature of 25° C. for 3 weeks, the herbicidal effects thereof were investigated.
(§6) The herbicidal effects were evaluated according to the evaluation method described in the above (1).

sugar beat [10] = test: Foliar spread test for upland field; format: in vivo; conditions: foliar spray 500 ppm, 3 weeks, rank vs non-treated
Text: as §2, §3, §4, §5, §6

solgum [11] = test: Foliar spread test for upland field; format: in vivo; conditions: foliar spray 500 ppm, 3 weeks, rank vs non-treated
Text: as §2, §3, §4, §5, §6

wheat [12] = test: Foliar spread test for upland field; format: in vivo; conditions: foliar spray 500 ppm, 3 weeks, rank vs non-treated
Text: as §2, §3, §4, §5, §6

soybean [13] = test: Foliar spread test for upland field; format: in vivo; conditions: foliar spray 500 ppm, 3 weeks, rank vs non-treated
Text: as §2, §3, §4, §5, §6

velvetleaf [14] = test: Soil treatment test for upland field; format: in vivo, Abutilon theophrasti; conditions: 500 g/ha, glass house 25° C., 3 weeks
How it was run: as §1

livid amaranth [15] = test: Foliar spread test for upland field; format: in vivo, Amaranthus lividus; conditions: foliar spray 500 ppm, 3 weeks, rank vs non-treated
Text: as §2, §3, §4, §5, §6

green foxtail [16] = test: Soil treatment test for upland field; format: in vivo, Setaria viridis; conditions: 500 g/ha, glass house 25° C., 3 weeks
How it was run: as §1

barnyardgrass [17] = test: Soil treatment test for upland field; format: in vivo, Echinochloa crusgalli; conditions: 500 g/ha, glass house 25° C., 3 weeks
How it was run: as §1

livid amaranth [18] = test: Soil treatment test for upland field; format: in vivo, Amaranthus lividus; conditions: 500 g/ha, glass house 25° C., 3 weeks
How it was run: as §1

velvetleaf [19] = test: Foliar spread test for upland field; format: in vivo, Abutilon theophrasti; conditions: foliar spray 500 ppm, 3 weeks, rank vs non-treated
Text: as §2, §3, §4, §5, §6

morning glory = test: Foliar spread test for upland field; format: in vivo, Ipomoea spps.; conditions: foliar spray 500 ppm, 3 weeks, rank vs non-treated
Text: as §2, §3, §4, §5, §6

annual bluegrass [20] = test: Soil treatment test for upland field; format: in vivo, Poa annua; conditions: 500 g/ha, glass house 25° C., 3 weeks
How it was run: as §1

common lambsquartes [21] = test: Foliar spread test for upland field; format: in vivo, Chenopodium album; conditions: foliar spray 500 ppm, 3 weeks, rank vs non-treated
Text: as §2, §3, §4, §5, §6

Large crabgrass [22] = test: Foliar spread test for upland field; format: in vivo, Digitaria adscendens; conditions: foliar spray 500 ppm, 3 weeks, rank vs non-treated
Text: as §2, §3, §4, §5, §6

cotton [23] = test: Foliar spread test for upland field; format: in vivo; conditions: foliar spray 500 ppm, 3 weeks, rank vs non-treated
Text: as §2, §3, §4, §5, §6

green foxtail [24] = test: Foliar spread test for upland field; format: in vivo, Setaria viridis; conditions: foliar spray 500 ppm, 3 weeks, rank vs non-treated
Text: as §2, §3, §4, §5, §6

barnyardgrass [25] = test: Herbicidal test for paddy field; format: in vivo, Echinochloa crusgalli; conditions: paddy field pot, 500 g/ha dropwise at 1.5 leaf stage of barnyardgrass, 3 weeks, rank vs non-treated
Experimental: (§7) Wagner pots, each having an area of 1/5000 are, were packed with Ube soil (alluvial soil) and planted with seeds or tubers of young rice plant, barnyardgrass, bulrush, flat sedge and monochoria. Then, the pots were filled with water to a depth of 3 cm.
(§8) Each wettable powder of the desired compounds (I) shown in Table 1 prepared in accordance with Example 2 was diluted with water containing a surfactant (0.05%) and subjected to dropwise addition treatment by using pipet so that an effective concentration of the compound (I) in each herbicide became 500 g/ha at 1.5 leaf stage of barnyardgrass.
(§9) These plants were controlled in a glass house at an average temperature of 25° C. for 3 weeks, and then herbicidal effects thereof were investigated.
(§10) The herbicidal effects are evaluated according to the following 6 ranks as compared with non-treated district.
as §2

blackgrass [26] = test: Soil treatment test for upland field; format: in vivo, Alopecurus aegualis; conditions: 500 g/ha, glass house 25° C., 3 weeks
How it was run: as §1

monochoria = test: Herbicidal test for paddy field; format: in vivo, Monochoria vaginalis; conditions: paddy field pot, 500 g/ha dropwise at 1.5 leaf stage of barnyardgrass, 3 weeks, rank vs non-treated
Experimental: as §7, §8, §9, §10, §2

blackgrass [27] = test: Foliar spread test for upland field; format: in vivo, Alopecurus aegualis; conditions: foliar spray 500 ppm, 3 weeks, rank vs non-treated
Text: as §2, §3, §4, §5, §6

annual bluegrass [28] = test: Foliar spread test for upland field; format: in vivo, Poa annua; conditions: foliar spray 500 ppm, 3 weeks, rank vs non-treated
Text: as §2, §3, §4, §5, §6

young rice plant = test: Herbicidal test for paddy field; format: in vivo; conditions: paddy field pot, 500 g/ha dropwise at 1.5 leaf stage of barnyardgrass, 3 weeks, rank vs non-treated
Experimental: as §7, §8, §9, §10, §2

bulrush = test: Herbicidal test for paddy field; format: in vivo, Scrips juncoides; conditions: paddy field pot, 500 g/ha dropwise at 1.5 leaf stage of barnyardgrass, 3 weeks, rank vs non-treated
Experimental: as §7, §8, §9, §10, §2

| SMILES | Effects Corn (corn [1]) | Effects Sugar beat (sugar beat [2]) | Effects Solgum (solgum [3]) | Effects Cotton (cotton [4]) | Effects Wheat (wheat [5]) | Effects Soybean (soybean [6]) | Effects Large crabgrass (Large crabgrass [7]) | Effects Common lambsquarters (common lambsquartes [8]) | Effects Corn (corn [9]) | Effects Sugar beat (sugar beat [10]) | Effects Solgum (solgum [11]) | Effects Wheat (wheat [12]) | Effects Velvetleaf (velvetleaf [14]) | Effects Livid amaranth (livid amaranth [15]) | Effects Green foxtail (green foxtail [16]) | Effects Livid amaranth (livid amaranth [18]) | Effects Velvetleaf (velvetleaf [19]) | Effects Annual bluegrass (annual bluegrass [20]) | Effects Common lambsquarters (common lambsquartes [21]) | Effects Green foxtail (green foxtail [24]) | other results |
| --- | --- | --- | --- | --- | --- | --- | --- | --- | --- | --- | --- | --- | --- | --- | --- | --- | --- | --- | --- | --- | --- |
| CCCC(Oc1ccc(F)c(C(F)(F)F)c1)c1nc2cc(S(C)(=O)=O)c(C)cc2o1 (stereo not drawn) [Compound 488] | 0 | 5 | 0 | 1 | 0 | 0 | 5 | 4 | 1 | 5 | 1 | 1 | 5 | 5 | 5 | 5 | 3 | 5 | 3 | – | Effects Soybean (soybean [13]): 2; Effects Barnyardgrass (barnyardgrass [17]): 2; Effects Morning glory (morning glory): 2 |
| CCC(Oc1ccc(F)c(C(F)(F)F)c1)c1nc2cc(F)c(Cl)cc2o1 (stereo not drawn) [Compound 493] | 2 | 5 | 2 | 1 | 2 | 2 | 5 | 4 | 2 | 5 | 1 | 1 | 5 | 5 | 5 | 5 | 2 | 5 | 5 | 5 | Effects Large crabgrass (Large crabgrass [22]): 2; Effects Cotton (cotton [23]): 2; Effect Barnyardgrass (barnyardgrass [25]): 5; Effects Barnyardgrass (barnyardgrass [17]): 4; Effects Blackgrass (blackgrass [26]): 4; Effect Monochoria (monochoria): 5 |
| CCC(Oc1cccc(C(F)(F)F)c1)c1nc2cc(F)c(Cl)cc2o1 (stereo not drawn) [Compound 496] | 0 | 5 | 1 | 1 | 1 | 0 | 5 | 5 | 2 | 5 | 2 | 2 | 5 | 5 | 5 | 5 | 3 | 5 | 5 | 4 | Effects Large crabgrass (Large crabgrass [22]): 3; Effects Blackgrass (blackgrass [27]): 3; Effects Barnyardgrass (barnyardgrass [17]): 3; Effects Annual bluegrass (annual bluegrass [28]): 2; Effects Blackgrass (blackgrass [26]): 5 |
| CCCC(Oc1ccc(F)c(C(F)(F)F)c1)c1nc2cc(C#N)c(C#N)cc2o1 (stereo not drawn) [Compound 318] | 0 | 5 | 0 | 0 | 0 | 0 | 2 | 5 | 1 | 5 | 1 | 1 | 5 | 5 | 4 | 5 | 2 | 4 | 3 | 5 | Effects Soybean (soybean [13]): 2; Effects Blackgrass (blackgrass [26]): 2 |
| CCC(Oc1cccc(C#N)c1)c1nc2cc(S(C)(=O)=O)c(C)cc2o1 (stereo not drawn) [Compound 491] | – | – | – | – | – | – | – | – | 1 | 4 | 1 | 1 | – | 4 | – | – | 3 | – | 5 | 2 | Effects Cotton (cotton [23]): 2; Effect Young rice plant (young rice plant): 0; Effect Bulrush (bulrush): 3; Effects Morning glory (morning glory): 3; Effect Monochoria (monochoria): 5 |

Source: patent US6706664B1, “Benzoxazole compounds, process for the preparation thereof and herbicides” (UBE Industries, Ltd., priority 1999, dated 2004)
